Test [1] deals with Ec-LysC (Escherichia coli, UniProt P08660). To be noted: 2 mM ATP, 5 mM MgCl2, 50 mM KCl, Hepes pH 7.5, 37 °C.
The target of test [2] is T1, Ms-Ssr (Metallosphaera sedula, UniProt A4YGN0).
T1 construct: gene Msed_1424
T1 sequence (A4YGN0 1-360): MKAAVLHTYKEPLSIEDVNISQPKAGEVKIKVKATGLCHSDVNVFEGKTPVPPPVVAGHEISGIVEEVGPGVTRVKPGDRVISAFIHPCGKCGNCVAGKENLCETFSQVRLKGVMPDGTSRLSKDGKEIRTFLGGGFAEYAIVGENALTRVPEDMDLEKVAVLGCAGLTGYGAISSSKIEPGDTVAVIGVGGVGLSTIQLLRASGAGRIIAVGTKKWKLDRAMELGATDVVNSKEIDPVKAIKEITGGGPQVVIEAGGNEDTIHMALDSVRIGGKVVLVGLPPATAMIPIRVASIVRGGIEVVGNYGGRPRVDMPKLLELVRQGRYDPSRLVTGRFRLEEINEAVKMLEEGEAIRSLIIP
Kind of test: NAD(P)H oxidation at […] nm. It is filed as biochemical. To be noted: NADPH 0.2 mM, Hepes pH 7.5, 50 mM KCl, 5 mM MgCl2, 37 °C; read-out: affinity.

The target of test [3] is Bs-Asd (Bacillus subtilis, UniProt Q04797, E218Q). Put plainly: NADPH oxidation, substrate made in situ by malate kinase. It is filed as biochemical. To be noted: biosynthetic direction, 0.2 mM NADPH, 2 mM ATP, 20 mM malate, Hepes pH 7, 37 °C.
In test [4] the target is T2, Mj-Asd (Methanocaldococcus jannaschii, UniProt Q57658).
T2 sequence (Q57658 1-354): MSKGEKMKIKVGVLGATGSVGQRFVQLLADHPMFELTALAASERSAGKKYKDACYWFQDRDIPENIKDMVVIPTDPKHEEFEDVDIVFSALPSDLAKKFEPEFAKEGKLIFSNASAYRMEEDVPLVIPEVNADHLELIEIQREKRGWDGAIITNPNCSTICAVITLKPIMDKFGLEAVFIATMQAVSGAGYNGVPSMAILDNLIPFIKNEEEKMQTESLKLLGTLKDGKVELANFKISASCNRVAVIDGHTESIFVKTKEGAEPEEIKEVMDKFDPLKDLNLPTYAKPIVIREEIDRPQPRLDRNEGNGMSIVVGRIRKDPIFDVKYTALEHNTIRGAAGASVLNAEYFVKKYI
The test is described as above. It is filed as biochemical. To be noted: biosynthetic direction, 0.2 mM NADPH, 2 mM ATP, 20 mM malate, Hepes pH 7, 37 °C.

Chain of Bs-Asd (Q04797 whole entry E218Q): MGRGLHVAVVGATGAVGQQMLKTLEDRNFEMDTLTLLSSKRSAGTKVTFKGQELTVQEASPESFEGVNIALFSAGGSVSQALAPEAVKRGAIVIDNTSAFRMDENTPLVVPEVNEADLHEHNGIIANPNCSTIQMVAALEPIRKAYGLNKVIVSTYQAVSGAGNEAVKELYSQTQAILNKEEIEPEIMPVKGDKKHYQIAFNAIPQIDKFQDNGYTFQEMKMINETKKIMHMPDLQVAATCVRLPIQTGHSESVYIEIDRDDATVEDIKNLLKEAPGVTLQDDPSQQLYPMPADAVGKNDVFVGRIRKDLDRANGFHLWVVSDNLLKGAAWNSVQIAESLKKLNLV
Chain of Ec-LysC (P08660 whole entry): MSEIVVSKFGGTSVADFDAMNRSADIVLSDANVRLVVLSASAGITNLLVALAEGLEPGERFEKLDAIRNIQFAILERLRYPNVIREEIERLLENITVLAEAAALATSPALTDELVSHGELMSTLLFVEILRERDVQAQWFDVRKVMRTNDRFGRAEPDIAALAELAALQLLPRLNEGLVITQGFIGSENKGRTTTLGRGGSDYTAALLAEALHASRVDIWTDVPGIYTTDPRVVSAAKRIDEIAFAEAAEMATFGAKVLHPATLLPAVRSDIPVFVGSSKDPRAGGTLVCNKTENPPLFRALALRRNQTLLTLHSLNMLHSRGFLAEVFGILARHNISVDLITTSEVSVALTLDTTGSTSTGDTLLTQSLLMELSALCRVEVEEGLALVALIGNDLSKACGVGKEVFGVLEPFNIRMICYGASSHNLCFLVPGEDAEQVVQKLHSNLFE

As for `N[C@@H](CC(=O)O)C(=O)O` [(L)-aspartate], in test [1], the Km result was “Catalytic efficiency (kcat/Km) of wild-type aspartate kinase”. Turning to `O=CC[C@H](O)C(=O)O` [MSA, malate semialdehyde], the Km in test [2] turned out to be 1100 µM.

For the compound `O=C(C[C@H](O)C(=O)O)OP(=O)(O)O` [malyl-P, malyl-4-phosphate], the “NADPH oxidation, substrate made in situ by malate kinase” value in test [3] is “Bs-Asd E218Q mutant enzyme, which displayed an almost eightfold increased activity on malyl-P”; in test [4], “Enzymatic activities of wild-type Bs-Asd and Mj-Asd on malyl-P were approximately threefold lower”.

These data come from publication PMC5481828, “Construction of a synthetic metabolic pathway for biosynthesis of the non-natural methionine precursor 2,4-dihydroxybutyric acid” (Nature Communications, 2017).
